Data reported in PubChem BioAssay (NCI).
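Interpolation was linear, between the two tested concentrations surrounding the appropriate level; five concentrations were tested over 48 hours in 96-well plates. GI50: concentration for 50% inhibition of growth. TGI denotes the concentration required for complete inhibition of growth.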

What was measured:
Assay in all cases: NCI anticancer screen, dose series, 48 h
SF-268 CNS = tested on: SF-268 CNS
SK-MEL-28 melanoma = tested on: SK-MEL-28 melanoma
SW-620 colon = tested on: SW-620 colon
NCI/ADR-RES ovarian = tested on: NCI/ADR-RES ovarian
NCI-H522 lung = tested on: NCI-H522 lung
HCT-116 colon = tested on: HCT-116 colon
OVCAR-5 ovarian = tested on: OVCAR-5 ovarian

SMILES | GI50 (SF-268 CNS) | TGI (SF-268 CNS) | GI50 (SK-MEL-28 melanoma) | TGI (SK-MEL-28 melanoma) | GI50 (SW-620 colon) | TGI (SW-620 colon) | GI50 (NCI/ADR-RES ovarian) | TGI (NCI/ADR-RES ovarian) | GI50 (NCI-H522 lung) | TGI (NCI-H522 lung) | GI50 (HCT-116 colon) | TGI (HCT-116 colon) | GI50 (OVCAR-5 ovarian) | TGI (OVCAR-5 ovarian)
CN1c2ccccc2C(C)(C)C12C=Cc1cc(O)ccc1O2 (stereo unspecified) | 2.76 µM | 10.5 µM | 3.94 µM | 15.5 µM | 3.4 µM | 13.8 µM | 1.96 µM | 7.14 µM | 3.6 µM | 24.9 µM | 2.8 µM | 11.8 µM | 10.2 µM | 25.2 µM
N#CSCC1CC(O)(c2ccccc2)CC(c2ccc(F)cc2)O1 (stereo unspecified) | 1.65 µM | 3.3 µM | 4.23 µM | 15.4 µM | 2.07 µM | 3.74 µM | 1.92 µM | 4.77 µM | 1.4 µM | 3.1 µM | 1.63 µM | 2.98 µM | 2.32 µM | 5.28 µM
O=C(NCc1ccc(Cn2c(=O)sn(-c3ccccc3)c2=O)cc1)OCc1ccc2c(Br)cc(Br)c(O)c2n1 | 1.46 µM | 2.88 µM | 1.17 µM | 2.4 µM | 0.246 µM | 0.649 µM | 1.2 µM | 7.06 µM | 0.309 µM | 1.08 µM | 0.141 µM | 0.328 µM | 1.43 µM | 2.97 µM
COc1ccc(Nc2c3ccccc3nc3ccccc23)cc1 | 3.63 µM | 19.1 µM | 2.17 µM | 15.3 µM | 0.599 µM | 14.4 µM | 0.545 µM | 15.5 µM | 1.13 µM | 15.7 µM | 0.576 µM | 11.5 µM | 6.15 µM | 23 µM
Nc1nc(-c2ccccc2)nc(N)c1N=O | 12.3 µM | 39.2 µM | 11.9 µM | 30.6 µM | 2 µM | 5.77 µM | 6.44 µM | 59.6 µM | 2.27 µM | 7.27 µM | 4.12 µM | 17.8 µM | 13.7 µM | 26.8 µM
c1cc(CNCCN2CCNCC2)ccn1 |  | > 100 µM |  | > 100 µM |  | > 100 µM |  | > 100 µM |  | > 100 µM |  | > 100 µM |  | > 100 µM
O=C(Nc1ccccc1)NS(=O)(=O)c1ccc(-n2nc3c(c2-c2ccc(Cl)cc2)Cc2ccccc2-3)cc1 | 14.8 µM | 88.2 µM | 33.7 µM | > 100 µM | 23 µM | 55.4 µM |  |  | 19 µM | 67.4 µM | 22.5 µM | > 100 µM |  | 
CN1CCN(c2ccc3nc(-c4ccc5nc(-c6ccc(OCCC(C)(C)C)cc6)[nH]c5c4)[nH]c3c2)CC1 | 6.58 µM | 25.4 µM | 3.03 µM | 9.43 µM | 2.12 µM | 3.96 µM | 35.7 µM | > 100 µM | 13.6 µM | 38.1 µM |  |  | 2.96 µM | 9.96 µM
C=C1CC/C=C(\C)C(=O)C[C@@H]2[C@@H]1CC2(C)C |  | 52.7 µM |  | 6.34 µM |  | 11.5 µM |  | 46.6 µM |  | 2.96 µM |  | 7.06 µM |  | 27.3 µM
COc1cc2c(cc1Nc1nc(Nc3ccsc3C(N)=O)c3cc[nH]c3n1)N(C(=O)CN(C)C)CCC2(C)C | 2.6 µM | 5.75 µM | 3.06 µM | 6.41 µM | 0.357 µM | 4.1 µM | 2.01 µM | 8.49 µM | 0.764 µM | 3.76 µM | 1.05 µM | 4.8 µM | 0.0412 µM | 3.67 µM
CCCCCCCCCc1cccc(N2C(N)=NC(N)=NC2(C)C)c1 |  |  |  | 3.44 µM |  | 1.63 µM |  | 24.9 µM |  |  |  | 1.15 µM |  | 4.67 µM
C[C@@H](CO)[C@@H]1CCC=C2CC[C@]3(C)[C@H](CC[C@@H]4[C@@]5(C)CCCNC(C)(C)[C@@H]5CC[C@]43C)[C@H]21 | 4.48 µM | 19.5 µM | 1.72 µM | 3.45 µM | 1.86 µM | 3.62 µM | 2.05 µM | 4.45 µM | 1.85 µM | 3.86 µM |  |  | 3.18 µM | 12.6 µM
CN(C)c1ccc(Nc2cc(-c3cccc(OC(F)(F)F)c3)nc3ccc(N4CCCC4)cc23)cc1 | 1.85 µM | 3.54 µM | 1.79 µM | 3.3 µM |  |  | 1.92 µM | 3.88 µM | 2.03 µM | 4.73 µM |  |  | 1.79 µM | 3.37 µM
O=[N+]([O-])c1c(Br)sc(Br)c1[N+](=O)[O-] | 12.5 µM | 25 µM | 2.01 µM | 4.54 µM | 1.6 µM | 3.27 µM | 3.3 µM | 23.8 µM | 0.613 µM | 1.95 µM |  |  | 2.46 µM | 6.95 µM
Cn1ccnc1C(=O)/C=C/c1ccccc1 |  |  | 2.61 µM | 5.97 µM | 3.58 µM | 12.4 µM | 3.11 µM | 8.95 µM | 3.38 µM | 14.9 µM | 2.72 µM | 12.2 µM | 13.7 µM | 27.8 µM
COc1cc(COC(=O)N(CC(=O)O)c2ccccc2)c([N+](=O)[O-])cc1OC |  | > 100 µM |  | > 100 µM |  | > 100 µM |  | > 100 µM |  |  |  |  |  | > 100 µM
